Experimental data published in ChEMBL document CHEMBL1151674, “Oscillapeptin G, a tyrosinase inhibitor from toxic Oscillatoria agardhii” (J Nat Prod, 1996).

Molecular target: T1, Tyrosinase (Homo sapiens) (UniProt P14679)
T1 sequence (whole entry): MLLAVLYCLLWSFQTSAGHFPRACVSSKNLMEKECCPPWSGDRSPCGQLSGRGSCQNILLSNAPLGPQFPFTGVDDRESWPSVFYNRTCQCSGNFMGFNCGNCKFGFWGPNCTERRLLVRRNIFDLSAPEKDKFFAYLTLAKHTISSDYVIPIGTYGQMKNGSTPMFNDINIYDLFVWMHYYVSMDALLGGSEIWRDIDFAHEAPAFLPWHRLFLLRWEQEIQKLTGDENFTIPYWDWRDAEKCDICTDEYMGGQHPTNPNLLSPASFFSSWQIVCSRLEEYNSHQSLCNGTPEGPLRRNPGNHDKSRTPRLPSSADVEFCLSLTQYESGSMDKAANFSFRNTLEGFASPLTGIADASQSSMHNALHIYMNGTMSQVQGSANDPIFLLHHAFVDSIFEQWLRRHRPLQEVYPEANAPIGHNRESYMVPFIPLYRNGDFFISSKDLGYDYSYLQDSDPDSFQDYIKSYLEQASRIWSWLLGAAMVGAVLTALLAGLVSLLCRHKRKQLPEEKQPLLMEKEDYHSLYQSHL
Experiment: Inhibition of tyrosinase-mediated formation of melanin from tyrosine at 100 uM relative to control

## CC[C@H](C)[C@@H]1NC(=O)[C@H](Cc2ccc(O)cc2)N(C)C(=O)[C@H]([C@H](C)O)N2C(=O)[C@H](CC[C@H]2O)NC(=O)[C@H](CC(C)C)NC(=O)[C@@H](NC(=O)[C@H](CCC(N)=O)NC(=O)[C@H](CCc2ccc(O)cc2)NC(=O)[C@H](O)CO)[C@@H](C)OC1=O
  inhibition: 55%
